Where only a bound is given, the exact number is not on record here.

The experiment concerns SU-DHL-4 cell line. The experiment in a line: SU-DHL-4 cell proliferation assay (Cell Titer-Glo viability). The experiment is classed as cell-based. Particulars: Homo sapiens; cell viability IC50 activity level, DLBCL cell line SU-DHL-4, 120 hours post-treatment; read-out: SU-DHL-4 Act. In short, it runs like this:
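SU-DHL-4 cells (500/well, RPMI-1640 + 10% FBS) exposed to 20-point compound dilutions (0.5 nM–10 μM, 0.1% DMSO) for 120 h at 37°C, 5% CO2. Viability measured by Cell Titer-Glo luminescence at t0 and at 120 h. IC50 is the concentration giving 50% of DMSO control, from a four-parameter logistic fit.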
On the technique in general: Cellular ATP, detected with luciferase, serves as a proxy for viable cell number.
Turning to `O=C1CCC(N2C(=O)c3cccc(NCc4ccc(CN5CC6(CCOCC6)C5)cc4F)c3C2=O)C(=O)N1` (stereo not drawn) [Cpd 221, 4-(4-(7-oxa-2-azaspiro[3.5]nonan-2-ylmethyl)-2-fluorobenzylamino)-2-(2,6-dioxopiperidin-3-yl)isoindoline-1,3-dione], the IC50 is less than 200 nM.
Regarding `O=C1CCC(N2C(=O)c3cccc(NCc4ccc(CN5CC6(CC6)C5)cc4F)c3C2=O)C(=O)N1` (stereo not drawn) [Cpd 135, 4-(4-(5-azaspiro[2.3]hexan-5-ylmethyl)-2-fluorobenzylamino)-2-(2,6-dioxopiperidin-3-yl)isoindoline-1,3-dione], the IC50 fell in the range of 200 to 500 nM.
For the molecule `Cc1cc(CNc2cccc3c2C(=O)N(C2CCC(=O)NC2=O)C3=O)ccc1CN1CC2(CCOC2)C1` (stereo not drawn) [Cpd 243, 4-(4-(6-oxa-2-azaspiro[3.4]octan-2-ylmethyl)-3-methylbenzylamino)-2-(2,6-dioxopiperidin-3-yl)isoindoine-1,3-dione], the IC50 is less than 200 nM.
Take `N#Cc1ccc(N2CCN(Cc3ccc(CNc4cccc5c4C(=O)N(C4CCC(=O)NC4=O)C5=O)cc3)CC2)c(Cl)c1` (stereo not drawn) [Cpd 9, 3-chloro-4-(4-(4-((2-(2,6-dioxopiperidin-3-yl)-1,3-dioxoisoindolin-4-ylamino)methyl)benzyl)piperazin-1-yl)benzonitrile]: the IC50 is less than 200 nM.
As to `O=C1CCC(N2C(=O)c3cccc(NCc4ccc(CN5CCC(O)(C6CC6)CC5)cc4)c3C2=O)C(=O)N1` (stereo not drawn) [Cpd 131, 4-(4-((4-cyclopropyl-4-hydroxypiperidin-1-yl)methyl)benzylamino)-2-(2,6-dioxopiperidin-3-yl)isoindoline-1,3-dione], the IC50 was in the range of 200 to 500 nM.
Turning to `NC(=O)c1cccc(N2CCN(Cc3ccc(CNc4cccc5c4C(=O)N(C4CCC(=O)NC4=O)C5=O)c(F)c3)CC2)n1` (stereo not drawn) [Cpd 184, 6-(4-(4-((2-(2,6-dioxopiperidin-3-yl)-1,3-dioxoisoindolin-4-ylamino)methyl)-3-fluorobenzyl)piperazin-1-yl)picolinamide], the IC50 was less than 200 nM.
On to `O=C1CCC(N2C(=O)c3cccc(NCc4ccc(CN5CCC(n6cccn6)CC5)cc4)c3C2=O)C(=O)N1` (stereo not drawn) [Cpd 25, 4-(4-((4-(1H-pyrazol-1-yl)piperidin-1-yl)methyl)benzylamino)-2-(2,6-dioxopiperidin-3-yl)isoindoline-1,3-dione], for which the IC50 lay in the range of 200 to 500 nM.
The result for `NC(=O)c1ccc(N2CCN(Cc3ccc(CNc4cccc5c4C(=O)N(C4CCC(=O)NC4=O)C5=O)c(F)c3)CC2)cn1` (stereo not drawn) [Cpd 110, 5-(4-(4-((2-(2,6-dioxopiperidin-3-yl)-1,3-dioxoisoindolin-4-ylamino)methyl)-3-fluorobenzyl)piperazin-1-yl)picolinamide] reads less than 200 nM.
With `O=C1CCC(N2C(=O)c3cccc(NCc4ccc(CN5CC(c6ccc(F)cc6)C5)cc4)c3C2=O)C(=O)N1` (stereo not drawn) [Cpd 14, 2-(2,6-dioxopiperidin-3-yl)-4-(4-((3-(4-fluorophenyl)azetidin-1-yl)methyl)benzylamino)isoindoline-1,3-dione], the IC50 was in the range of 200 to 500 nM.
As to `Cc1cc(CNc2cccc3c2C(=O)N(C2CCC(=O)NC2=O)C3=O)ccc1CN1CCN(c2ccc(C#N)cc2Cl)CC1` (stereo not drawn) [Cpd 61, 3-chloro-4-(4-(4-((2-(2,6-dioxopiperidin-3-yl)-1,3-dioxoisoindolin-4-ylamino)methyl)-2-methylbenzyl)piperazin-1-yl)benzonitrile], the IC50 was less than 200 nM.
As to `O=C1CCC(N2C(=O)c3cccc(NCc4ccc(CN5CCC6(COC6)C5)cc4F)c3C2=O)C(=O)N1` (stereo not drawn) [Cpd 227, 4-(4-(2-oxa-6-azaspiro[3.4]octan-6-ylmethyl)-2-fluorobenylamino)-2-(2,6-dioxopiperidin-3-yl)isoindoline-1,3-dione], the IC50 was less than 200 nM.
With `CC(C)(C)C1CCN(Cc2ccc(CNc3cccc4c3C(=O)N(C3CCC(=O)NC3=O)C4=O)c(F)c2)CC1` (stereo not drawn) [Cpd 94, 4-(4-((4-tert-butylpiperidin-1-yl)methyl)-2-fluorobenzylamino)-2-(2,6-dioxopiperidin-3-yl)isoindoline-1,3-dione], the IC50 was less than 200 nM.
Take `O=C1CC[C@H](N2C(=O)c3cccc(NCc4ccc(CN5CC(N6CCOCC6)C5)cc4F)c3C2=O)C(=O)N1` [Cpd 208, (S)-2-(2,6-dioxopiperidin-3-yl)-4-(2-fluoro-4-((3-morpholinoazetidin-1-yl)methyl)benzylamino)isoindoline-1,3-dione]: the IC50 was less than 200 nM.
The result for `O=C1CCC(N2C(=O)c3cccc(NCc4ccc(CN5CCC(Oc6ccccn6)CC5)cc4)c3C2=O)C(=O)N1` (stereo not drawn) [Cpd 132, 2-(2,6-dioxopiperidin-3-yl)-4-(4-((4-(pyridin-2-yloxy)piperidin-1-yl)methyl)benzylamino)isoindoline-1,3-dione] reads 751 to 1000 nM.
Consider `O=C1CCC(N2C(=O)c3cccc(NCc4ccc(CN5CCC(C(F)(F)F)CC5)cc4)c3C2=O)C(=O)N1` (stereo not drawn) [Cpd 26, 2-(2,6-dioxopiperidin-3-yl)-4-(4-((4-(trifluoromethyl)piperidin-1-yl)methyl)benzylamino)isoindoline-1,3-dione], for which the IC50 lay within 200 to 500 nM.
For `CCS(=O)(=O)N1CCN(Cc2ccc(CNc3cccc4c3C(=O)N(C3CCC(=O)NC3=O)C4=O)cc2)CC1` (stereo not drawn) [Cpd 133, 2-(2,6-dioxopiperidin-3-yl)-4-(4-((4-(ethylsulfonyl)piperazin-1-yl)methyl)benzylamino)isoindoline-1,3-dione], the IC50 fell in the range of 200 to 500 nM.
As for `O=C1CCC(N2C(=O)c3cccc(NCc4ccc(CN5CCN(c6ccc(Cl)cc6)CC5)cc4)c3C2=O)C(=O)N1` (stereo not drawn) [Cpd 3, 4-(4-((4-(4-chlorophenyl)piperazin-1-yl)metthyl)benzylamino)-2-(2,6-dioxopiperidin-3-yl)isoindoline-1,3-dione], the IC50 was 200 to 500 nM.
In the case of `O=C1CCC(N2C(=O)c3cccc(NCc4ccc(CN5CC(N6CCCC6=O)C5)cc4F)c3C2=O)C(=O)N1` (stereo not drawn) [Cpd 169, 2-(2,6-dioxopiperidin-3-yl)-4-(2-fluoro-4-((3-(2-oxopyrrolidin-1-yl)azetidin-1-yl)methyl)benzylamino)isoindoline-1,3-dione], the IC50 is less than 200 nM.
For the molecule `Cc1cc(CNc2cccc3c2C(=O)N(C2CCC(=O)NC2=O)C3=O)ccc1CN1CCC2(COC2)C1` (stereo not drawn) [Cpd 229, 4-(4-(2-oxa-6-azaspiro[3.4]octan-6-ylmethyl)-3-methylbenzylamino)-2-(2,6-dioxopiperidin-3-yl)isoindoline-1,3-dione], the IC50 was 501 to 750 nM.
For `O=C1CCC(N2C(=O)c3cccc(NCc4ccc(CN5CC(N6CCCC6)C5)cc4F)c3C2=O)C(=O)N1` (stereo not drawn) [Cpd 218, 2-(2,6-dioxopiperidin-3-yl)-4-(2-fluoro-4-((3-(pyrrolidin-1-yl)azetidin-1-yl)methyl)benzylamino)isoindoline-1,3-dione], the IC50 is less than 200 nM.
On to `CC1(C)CCN(Cc2ccc(CNc3cccc4c3C(=O)N(C3CCC(=O)NC3=O)C4=O)cc2)CC1` (stereo not drawn) [Cpd 36, 4-(4-((4,4-dimethylpiperidin-1-yl)methyl)benzylamino)-2-(2,6-dioxopiperidin-3-yl)isoindoline-1,3-dione], for which the IC50 fell in the range of 200 to 500 nM.
`O=C1CCC(N2C(=O)c3cccc(NCc4ccc(CN5CCC6(CCC6)C5)cc4)c3C2=O)C(=O)N1` (stereo not drawn) [Cpd 73, 4-(4-(6-azaspiro[3.4]octan-6-ylmethyl)benzylamino)-2-(2,6-dioxopiperidin-3-yl)isoindoline-1,3-dione]: the IC50 lay in the range of 751 to 1000 nM.
For `Cc1cc(CNc2cccc3c2C(=O)N(C2CCC(=O)NC2=O)C3=O)ccc1CN1CCC(C(C)C)CC1` (stereo not drawn) [Cpd 40, 2-(2,6-dioxopiperidin-3-yl)-4-(4-((4-isopropylpiperidin-1-yl)methyl)-3-methylbenzylamino)isoindoline-1,3-dione], the IC50 is less than 200 nM.
For `CC(C)OC1CCN(Cc2ccc(CNc3cccc4c3C(=O)N(C3CCC(=O)NC3=O)C4=O)cc2)CC1` (stereo not drawn) [Cpd 24, 2-(2,6-dioxopiperidin-3-yl)-4-(4-((4-isopropoxypiperidin-1-yl)methyl)benzylamino)isoindoline-1,3-dione], the IC50 lay in the range of 200 to 500 nM.
Under `O=C1CCC(N2C(=O)c3cccc(NCc4ccc(CN5CCN(c6ncsn6)CC5)cc4)c3C2=O)C(=O)N1` (stereo not drawn) [Cpd 196, 4-(4-((4-(1,2,4,-thiadiazol-3-yl)piperazin-1-yl)methyl)benzylamino)-2-(2,6-dioxopiperidin-3-yl)isoindoline-1,3-dione] stands less than 200 nM; under `CC(C)(C)C1CCN(Cc2ccc(CNc3cccc4c3C(=O)N(C3CCC(=O)NC3=O)C4=O)cc2F)CC1` (stereo not drawn) [Cpd 92, 4-(4-((4-tert-butylpiperidin-1-yl)methyl)-3-fluorobenzylamino)-2-(2,6-dioxopiperidin-3-yl)isoindoline-1,3-dione], less than 200 nM.
As to `NC(=O)c1ccc(N2CCN(Cc3ccc(CNc4cccc5c4C(=O)N(C4CCC(=O)NC4=O)C5=O)cc3F)CC2)cn1` (stereo not drawn) [Cpd 98, 5-(4-(4-((2-(2,6-dioxopiperidin-3-yl)-1,3-dioxoisoindolin-4-ylamino)methyl)-2-fluorobenzyl)piperazin-1-yl)picolinamide], the IC50 was less than 200 nM.
The result for `N#Cc1cccc(C2CN(Cc3ccc(CNc4cccc5c4C(=O)N(C4CCC(=O)NC4=O)C5=O)cc3F)C2)c1` (stereo not drawn) [Cpd 120, 3-(1-(4-((2-(2,6-dioxopiperidin-3-yl)-1,3-dioxoisoindolin-4-ylamino)methyl)-2-fluorobenzyl)azetidin-3-yl)benzonitrile] reads less than 200 nM.
Turning to `Cc1cc(CNc2cccc3c2C(=O)N(C2CCC(=O)NC2=O)C3=O)ccc1CN1CCC(N2CCOCC2)CC1` (stereo not drawn) [Cpd 211, 2-(2,6-dioxopiperidin-3-yl)-4-(3-methyl-4-((4-morpholinopiperidin-1-yl)methyl)benzylamino)isoindoline-1,3-dione], the IC50 was in the range of 200 to 500 nM.
Turning to `CC(C)(C)N1CCN(Cc2ccc(CNc3cccc4c3C(=O)N(C3CCC(=O)NC3=O)C4=O)cc2F)CC1` (stereo not drawn) [Cpd 93, 4-(4-((4-tert-butylpiperazin-1-yl)methyl)-3-fluorobenzylamino)-2-(2,6-dioxopiperidin-3-yl)isoindoline-1,3-dione], the IC50 is less than 200 nM.

The values above are taken from patent US11358952B2, “Substituted 4-aminoisoindoline-1,3-dione compounds, compositions thereof, and methods of treatment therewith” (Celgene Corporation, priority 2018, dated 2022).
